# Experimental data from PubChem BioAssay (NCI).
#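 Compound exposure: 48 hours, 5 concentrations, 96-well plates. GI50 = concentration required for 50% inhibition of growth. TGI marks complete inhibition of growth.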
# Tests used:
# Assay in all cases: inhibition of tumour cell growth, NCI panel, 48 h
# [1] = system: CCRF-CEM leukemia
# [2] = system: LOX IMVI melanoma
# [3] = system: OVCAR-3 ovarian
# [4] = system: OVCAR-4 ovarian
# [5] = system: SK-MEL-28 melanoma
# [6] = system: SK-OV-3 ovarian
# [7] = system: SNB-19 CNS
# [8] = system: U251 CNS
# [9] = system: UACC-62 melanoma
# [10] = system: HCT-15 colon
SMILES,TGI [1],TGI [2],TGI [3],TGI [4],TGI [5],TGI [6],TGI [7],TGI [8],TGI [9],TGI [10],GI50 [1],GI50 [10],GI50 [2],GI50 [3],GI50 [4],GI50 [5],GI50 [6],GI50 [7],GI50 [8],GI50 [9]
CCc1ccc2nccc(NCCCN(C)C)c2c1[N+](=O)[O-],> 100 µM,> 100 µM,> 100 µM,> 100 µM,> 100 µM,> 100 µM,> 100 µM,> 100 µM,> 100 µM,–,–,–,–,–,–,–,–,–,–,–
Cn1c(=O)c(C(=O)NC(=O)NCCCCCOC(=O)CCCCCCCCCCC(=O)OCCCCCNC(=O)NC(=O)c2cn(Cc3ccccc3)c(=O)n(C)c2=O)cn(Cc2ccccc2)c1=O,> 100 µM,> 100 µM,> 100 µM,> 100 µM,> 100 µM,> 100 µM,> 100 µM,> 100 µM,> 100 µM,> 100 µM,–,–,–,–,–,–,–,–,–,–
CC1(C(=O)O)CCOc2ccccc21 (stereo not given),> 100 µM,> 100 µM,> 100 µM,> 100 µM,> 100 µM,–,> 100 µM,–,> 100 µM,> 100 µM,–,–,–,–,–,–,–,–,–,–
COc1cccc(N=N/C(=N\NC(=O)c2cc(Br)ccc2O)c2ccc(N(CCC#N)CCC#N)cc2OC)c1,> 150 µg/mL,15 µg/mL,> 150 µg/mL,60.9 µg/mL,> 150 µg/mL,> 150 µg/mL,> 150 µg/mL,> 150 µg/mL,> 150 µg/mL,> 150 µg/mL,53.7 µg/mL,52 µg/mL,15 µg/mL,59 µg/mL,17.5 µg/mL,62.7 µg/mL,72.6 µg/mL,68.9 µg/mL,34.4 µg/mL,60.5 µg/mL
Cc1cc(C)c(S(=O)(=O)N(CCc2cccc(Br)c2)Cc2ccc(-c3cccc(S(C)(=O)=O)c3)cc2)c(C)c1,> 100 µM,> 100 µM,> 100 µM,> 100 µM,> 100 µM,> 100 µM,> 100 µM,> 100 µM,> 100 µM,> 100 µM,> 100 µM,> 100 µM,> 100 µM,> 100 µM,> 100 µM,> 100 µM,> 100 µM,> 100 µM,> 100 µM,> 100 µM
COC12CCC(C(C(=O)c3ccccc3)=C1C(=O)c1ccccc1)C(O)C2 (stereo not given),> 100 µM,–,> 100 µM,> 100 µM,> 100 µM,> 100 µM,> 100 µM,–,> 100 µM,> 100 µM,–,–,–,–,–,–,–,–,–,–
